Here are results for 16 compounds from ChEMBL document CHEMBL1135190, “A comparison of the binding of three series of nicotinic ligands” (Bioorg Med Chem Lett, 2002).

The structures appear in SMILES notation.

This assay addresses Neuronal acetylcholine receptor. In words: Binding affinity towards nicotinic acetylcholine receptor using [3H]nicotine as radioligand in rat brain homogenates. The assay is classed as tissue-based.
As to `CCN(C)CCOc1cncc(Br)c1`, the affinity corresponds to a Ki of 447 nM. On to `CCN(C)Cc1ccc(Br)nc1`, for which affinity was put at a Ki of 62 nM. The figure for `CCN(C)Cc1cncc(OC)c1` is 115 nM. In the case of `c1ccc2ncc(C3CCCN3)cc2c1` (stereo unspecified) it was 93 nM; in that of `CCN(C)Cc1ccc(C)nc1`, 66 nM. `CN1CCCC1c1cnc2cc3ccncc3cc2c1` (stereo unspecified) showed a Ki of 11.2 nM. In the case of `CCN(C)CCOc1cncc(OC)c1` it was 16 nM. In the case of `CCN(C)CCOc1cccnc1` it was 22 nM; in that of `CCN(C)Cc1cnccc1F`, 93 nM; in that of `CCN(C)Cc1cnc2cc3ccncc3cc2c1`, 1110 nM.

Turning to `CCN(C)CCOc1ccc(OC)nc1`, the Ki is 4070 nM. `CN1CCCC1c1cncc(F)c1` (stereo unspecified) yielded a Ki of 1.03 nM. In the case of `CCN(C)CCOc1ccc(Br)nc1` it was 290 nM; in that of `CN1CCCC1c1ccc(Br)nc1` (stereo unspecified), 0.45 nM; in that of `CCN(C)Cc1cnccc1Cl`, 41 nM. Regarding `CN1CCCC1c1cncc(Cl)c1` (stereo unspecified), the Ki came out at 0.63 nM.

As usually defined, the Ki is the dissociation constant of the complex between target and ligand, obtained from inhibition or displacement. A high value points to lower affinity.
